Residues, ends and D or L forms follow the SMILES beside them. Some results are limits rather than exact numbers.

The test relates to E. coli BL21. As to conditions: BL21, 17 h. An outline of the steps:
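EUCAST broth microdilution in Mueller-Hinton medium; end-exponential culture diluted to 0.005 McF (~1.5x10^6 CFU/mL) before 1:1 mixing with two-fold peptide dilutions (0.75 to 100 μg/mL), triplicates.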
For `CC(C)C[C@H](NC(=O)CNC(=O)[C@H](CCCNC(=N)N)NC(=O)[C@@H]1CSSC[C@H](NC(=O)[C@@H](NC(=O)[C@H](CC(C)C)NC(=O)[C@H](C)NC(=O)[C@H](CC(C)C)NC(=O)CNC(=O)[C@H](CC(C)C)NC(=O)CNC(=O)[C@@H](N)CCCNC(=N)N)C(C)C)C(=O)N[C@@H](CCCNC(=N)N)C(=O)N[C@@H](CCCNC(=N)N)C(=O)N2CCC[C@@H]2C(=O)NCC(=O)N1)C(=O)NCC(=O)N[C@@H](CC(C)C)C(=O)N[C@@H](C)C(=O)N[C@@H](CC(C)C)C(=O)N[C@H](C(=O)N[C@@H](CCCNC(=N)N)C(=O)N[C@@H](CCCNC(=N)N)C(=O)O)C(C)C` [Peptide P2_H12_pG], the “BL21 MIC, SS bond” value was 3.13 µg/mL and the “BL21 MIC, no SS bond” value worked out at 6.25 µg/mL.

As to `CC(C)C[C@H](NC(=O)CNC(=O)[C@H](CCCNC(=N)N)NC(=O)[C@@H]1CCCN1C(=O)[C@H](CCCNC(=N)N)NC(=O)[C@H](CCCNC(=N)N)NC(=O)[C@@H](NC(=O)[C@H](CC(C)C)NC(=O)[C@H](CC(=O)O)NC(=O)[C@H](CC(C)C)NC(=O)CNC(=O)[C@H](CC(C)C)NC(=O)CNC(=O)[C@@H](N)CCCNC(=N)N)C(C)C)C(=O)NCC(=O)N[C@@H](CC(C)C)C(=O)N[C@@H](CC(=O)O)C(=O)N[C@@H](CC(C)C)C(=O)N[C@H](C(=O)N[C@@H](CCCNC(=N)N)C(=O)N[C@@H](CCCNC(=N)N)C(=O)O)C(C)C` [P2_zero_tango_5] (H-RGLGLDLVRRPRGLGLDLVRR-OH), the “BL21 MIC” value was above 100.00 µg/mL.

For `CC(C)C[C@H](NC(=O)CNC(=O)[C@H](CCCNC(=N)N)NC(=O)[C@@H]1CCCN1C(=O)[C@H](CCCNC(=N)N)NC(=O)[C@H](CCCNC(=N)N)NC(=O)[C@@H](NC(=O)[C@H](CC(C)C)NC(=O)[C@H](C)NC(=O)[C@H](CC(C)C)NC(=O)CNC(=O)[C@H](CC(C)C)NC(=O)CNC(=O)[C@@H](N)CCCNC(=N)N)C(C)C)C(=O)NCC(=O)N[C@@H](CC(C)C)C(=O)N[C@@H](CC(C)C)C(=O)N[C@@H](CC(C)C)C(=O)N[C@H](C(=O)N[C@@H](CCCNC(=N)N)C(=O)N[C@@H](CCCNC(=N)N)C(=O)O)C(C)C` [Peptide P2_A5L] (H-RGLGLALVRRPRGLGLLLVRR-OH), the “BL21 MIC” value is 6.25 µg/mL. On the same count and under the same terms, under `CSCC[C@H](NC(=O)[C@H](CC(C)C)NC(=O)CNC(=O)[C@H](CC(C)C)NC(=O)CNC(=O)[C@H](CCCNC(=N)N)NC(=O)[C@@H]1CCCN1C(=O)[C@H](CCCNC(=N)N)NC(=O)[C@H](CCCNC(=N)N)NC(=O)[C@@H](NC(=O)[C@H](CC(C)C)NC(=O)[C@H](CCSC)NC(=O)[C@H](CC(C)C)NC(=O)CNC(=O)[C@H](CC(C)C)NC(=O)CNC(=O)[C@@H](N)CCCNC(=N)N)C(C)C)C(=O)N[C@@H](CC(C)C)C(=O)N[C@H](C(=O)N[C@@H](CCCNC(=N)N)C(=O)N[C@@H](CCCNC(=N)N)C(=O)O)C(C)C` [A5M (P2)] (H-RGLGLMLVRRPRGLGLMLVRR-OH) stands 6.25 µg/mL; under `CC(C)C[C@H](NC(=O)CNC(=O)[C@H](CCCNC(=N)N)NC(=O)[C@@H]1CCCN1C(=O)[C@H](CCCNC(=N)N)NC(=O)[C@H](CCCNC(=N)N)NC(=O)[C@@H](NC(=O)[C@H](CC(C)C)NC(=O)[C@H](CC(C)C)NC(=O)[C@H](CC(C)C)NC(=O)CNC(=O)[C@H](CC(C)C)NC(=O)CNC(=O)[C@@H](N)CCCNC(=N)N)C(C)C)C(=O)NCC(=O)N[C@@H](CC(C)C)C(=O)N[C@@H](CC(C)C)C(=O)N[C@@H](CC(C)C)C(=O)N[C@H](C(=O)N[C@@H](CCCNC(=N)N)C(=O)N[C@@H](CCCNC(=N)N)C(=O)O)C(C)C` [A5L (P2)] (H-RGLGLLLVRRPRGLGLLLVRR-OH), 12.50 µg/mL; under `CC[C@H](C)[C@H](NC(=O)CNC(=O)[C@H](CC(C)C)NC(=O)[C@@H](N)CCCNC(=N)N)C(=O)N[C@@H](C)C(=O)N[C@H](C(=O)N[C@@H](C)C(=O)N[C@@H](CC(C)C)C(=O)N[C@@H](CCCNC(=N)N)C(=O)N[C@@H](CCCNC(=N)N)C(=O)N1CCC[C@H]1C(=O)N[C@@H](CCCNC(=N)N)C(=O)N[C@@H](CC(C)C)C(=O)NCC(=O)N[C@@H](C)C(=O)N[C@@H](C)C(=O)N[C@H](C(=O)N[C@@H](C)C(=O)N[C@@H](CC(C)C)C(=O)N[C@@H](CCCNC(=N)N)C(=O)N[C@@H](CCCNC(=N)N)C(=O)O)C(C)C)C(C)C` [Peptide P33-I15A] (H-RLGIAVALRRPRLGAAVALRR-OH), 12.50 µg/mL.

Take `CC(C)C[C@H](NC(=O)CNC(=O)[C@H](CCCNC(=N)N)NC(=O)[C@H](C)NC(=O)[C@H](C)NC(=O)[C@H](CCCNC(=N)N)NC(=O)[C@@H](NC(=O)[C@H](CC(C)C)NC(=O)[C@H](C)NC(=O)[C@H](CC(C)C)NC(=O)CNC(=O)[C@H](CC(C)C)NC(=O)CNC(=O)[C@@H](N)CCCNC(=N)N)C(C)C)C(=O)NCC(=O)N[C@@H](CC(C)C)C(=O)N[C@@H](C)C(=O)N[C@@H](CC(C)C)C(=O)N[C@H](C(=O)N[C@@H](C)C(=O)N[C@@H](CCCNC(=N)N)C(=O)O)C(C)C` [Peptide P2_4R_A] (H-RGLGLALVRAARGLGLALVAR-OH): the “BL21 MIC” value turned out to be 12.50 µg/mL. For `CC[C@H](C)[C@H](NC(=O)[C@H](C)NC(=O)[C@H](CCCNC(=N)N)NC(=O)[C@@H](NC(=O)[C@H](CC(C)C)NC(=O)[C@H](C)NC(=O)[C@H](CC(C)C)NC(=O)CNC(=O)[C@H](CC(C)C)NC(=O)CNC(=O)[C@@H](N)CCCNC(=N)N)C(C)C)C(=O)N[C@@H](CCCNC(=N)N)C(=O)NCC(=O)N[C@@H](CC(C)C)C(=O)NCC(=O)N[C@@H](CC(C)C)C(=O)N[C@@H](C)C(=O)N[C@@H](CC(C)C)C(=O)N[C@H](C(=O)N[C@@H](C)C(=O)N[C@@H](CCCNC(=N)N)C(=O)O)C(C)C` [Peptide P2_4R_I] (H-RGLGLALVRAIRGLGLALVAR-OH), the “BL21 MIC” value was 12.50 µg/mL. For the molecule `CC[C@H](C)[C@H](NC(=O)CNC(=O)[C@H](CC(C)C)NC(=O)[C@@H](N)CCCNC(=N)N)C(=O)N[C@@H](C)C(=O)N[C@H](C(=O)N[C@@H](C)C(=O)N[C@@H](C)C(=O)N[C@@H](CCCNC(=N)N)C(=O)N[C@@H](CCCNC(=N)N)C(=O)N1CCC[C@H]1C(=O)N[C@@H](CCCNC(=N)N)C(=O)N[C@@H](CC(C)C)C(=O)NCC(=O)N[C@H](C(=O)N[C@@H](C)C(=O)N[C@H](C(=O)N[C@@H](C)C(=O)N[C@@H](CC(C)C)C(=O)N[C@@H](CCCNC(=N)N)C(=O)N[C@@H](CCCNC(=N)N)C(=O)O)C(C)C)[C@@H](C)CC)C(C)C` [Peptide P33-8LA] (H-RLGIAVAARRPRLGIAVALRR-OH), the “BL21 MIC” value is 6.25 µg/mL. The same measure, in the same setting: with `CSCC[C@H](NC(=O)[C@H](CC(C)C)NC(=O)CNC(=O)[C@H](CC(C)C)NC(=O)CNC(=O)[C@H](CCCNC(=N)N)NC(=O)[C@@H]1CCCN1C(=O)[C@H](CCCNC(=N)N)NC(=O)[C@H](CCCNC(=N)N)NC(=O)[C@@H](NC(=O)[C@H](CC(C)C)NC(=O)[C@H](C)NC(=O)[C@H](CC(C)C)NC(=O)CNC(=O)[C@H](CC(C)C)NC(=O)CNC(=O)[C@@H](N)CCCNC(=N)N)C(C)C)C(=O)N[C@@H](CC(C)C)C(=O)N[C@H](C(=O)N[C@@H](CCCNC(=N)N)C(=O)N[C@@H](CCCNC(=N)N)C(=O)O)C(C)C` [Peptide P2_A5M] (H-RGLGLALVRRPRGLGLMLVRR-OH) the figure was 6.25 µg/mL. On the same count and under the same terms, with `CC(C)C[C@H](NC(=O)CNC(=O)[C@H](CCCNC(=N)N)NC(=O)[C@@H]1CCCN1C(=O)[C@H](CCCNC(=N)N)NC(=O)[C@H](CCCNC(=N)N)NC(=O)[C@@H](NC(=O)[C@H](CC(C)C)NC(=O)[C@H](C)NC(=O)[C@H](CC(C)C)NC(=O)CNC(=O)[C@H](CC(C)C)NC(=O)CNC(=O)[C@@H](N)CCCNC(=N)N)C(C)C)C(=O)NCC(=O)N[C@@H](CC(C)C)C(=O)N[C@@H](Cc1c[nH]c2ccccc12)C(=O)N[C@@H](CC(C)C)C(=O)N[C@H](C(=O)N[C@@H](CCCNC(=N)N)C(=O)N[C@@H](CCCNC(=N)N)C(=O)O)C(C)C` [Peptide P2_A5W] (H-RGLGLALVRRPRGLGLWLVRR-OH) the figure was 6.25 µg/mL. As to `CC[C@H](C)[C@H](NC(=O)[C@H](CC(C)C)NC(=O)CNC(=O)[C@H](CC(C)C)NC(=O)CNC(=O)[C@H](CCCNC(=N)N)NC(=O)[C@@H]1CCCN1C(=O)[C@H](CCCNC(=N)N)NC(=O)[C@H](CCCNC(=N)N)NC(=O)[C@@H](NC(=O)[C@H](CC(C)C)NC(=O)[C@@H](NC(=O)[C@H](CC(C)C)NC(=O)CNC(=O)[C@H](CC(C)C)NC(=O)CNC(=O)[C@@H](N)CCCNC(=N)N)[C@@H](C)CC)C(C)C)C(=O)N[C@@H](CC(C)C)C(=O)N[C@H](C(=O)N[C@@H](CCCNC(=N)N)C(=O)N[C@@H](CCCNC(=N)N)C(=O)O)C(C)C` [A5I (P2)] (H-RGLGLILVRRPRGLGLILVRR-OH), the “BL21 MIC” value is 6.25 µg/mL.

On to `CC(C)C[C@H](NC(=O)CNC(=O)[C@H](CCCNC(=N)N)NC(=O)[C@@H]1CCCN1C(=O)[C@H](CCCNC(=N)N)NC(=O)[C@H](CCCNC(=N)N)NC(=O)[C@@H](NC(=O)[C@H](CC(C)C)NC(=O)[C@H](C)NC(=O)[C@H](CC(C)C)NC(=O)CNC(=O)[C@H](CC(C)C)NC(=O)CNC(=O)[C@@H](N)CCCNC(=N)N)C(C)C)C(=O)NCC(=O)N[C@@H](CC(C)C)C(=O)N[C@@H](C)C(=O)N[C@@H](C)C(=O)N[C@H](C(=O)N[C@@H](CCCNC(=N)N)C(=O)N[C@@H](CCCNC(=N)N)C(=O)O)C(C)C` [Peptide P2_L18A] (H-RGLGLALVRRPRGLGLAAVRR-OH), for which the “BL21 MIC” value stood at 50.00 µg/mL. The same measure, in the same setting: under `CC(C)C[C@H](NC(=O)CNC(=O)[C@H](CCCNC(=N)N)NC(=O)[C@@H]1CCCN1C(=O)[C@H](CCCNC(=N)N)NC(=O)[C@H](CCCNC(=N)N)NC(=O)[C@@H](NC(=O)CNC(=O)[C@H](C)NC(=O)[C@H](CC(C)C)NC(=O)CNC(=O)[C@H](CC(C)C)NC(=O)CNC(=O)[C@@H](N)CCCNC(=N)N)C(C)C)C(=O)NCC(=O)N[C@@H](CC(C)C)C(=O)N[C@@H](C)C(=O)NCC(=O)N[C@H](C(=O)N[C@@H](CCCNC(=N)N)C(=O)N[C@@H](CCCNC(=N)N)C(=O)O)C(C)C` [L6G (P2)] (H-RGLGLAGVRRPRGLGLAGVRR-OH) stands 100.00 µg/mL.

These data come from PMC10065276, “Enhanced therapeutic window for antimicrobial Pept-ins by investigating their structure-activity relationship” (PLOS ONE, 2023).
